A word on the IC50: it is the midpoint of a concentration-inhibition curve.

In one experiment the test system is BT-474. As to the kind of experiment: Cytotoxicity against human BT474 cells after 3 days by MTT assay. Format: functional, cell-based. Particulars: BT-474, 72 h. Background: Formazan colour is commonly taken as a measure of viable cells.
A further experiment deals with SW-620. As to the kind of experiment: Cytotoxicity against human SW620 cells after 3 days by MTT assay. Format: functional, cell-based. The following applies: SW-620, 72 h.
Experiment [1] is described as follows: Cytotoxicity against human ChaGo cells after 3 days by MTT assay. Format: functional, cell-based. The following applies: 72 h.
For a further experiment, the system named is HepG2. As to the kind of experiment: Cytotoxicity against human HepG2 cells after 3 days by MTT assay. Format: functional, cell-based. Particulars: HepG2, 72 h.
Experiment [2] is described as follows: Cytotoxicity against human KATO III cells after 3 days by MTT assay. The following applies: 72 h. Format: functional, cell-based, KATO III cell.

Values after ≈ are worked out from the molar mass of the structure shown. Bounds are passed on as bounds.

For the molecule `C=C(CO)[C@@H]1CC[C@H]2[C@]3(CC[C@]4(C)[C@@H]([C@H](C)CCC=C(C)C)CC[C@@]24C)C[C@]13CCC(=O)O` [SECAUBRYENOL], the IC50 (in the experiment on BT-474; with SW-620; in experiment [1]; in the experiment on HepG2; in experiment [2]) was greater than 10 µg/mL in each case.

As for `C=C(C)[C@@H]1CC[C@@H]2[C@]3(CC[C@]4(C)[C@@H]([C@H](C)CCC=C(C)C)CC[C@@]24C)C[C@]13CCC(=O)O` [SOOTEPIN E], the IC50 was determined as 6.07 µg/mL (≈ 13.8 µM) in the experiment on BT-474; 4.22 µg/mL (≈ 9.58 µM) in the experiment on SW-620; 5.2 µg/mL (≈ 11.8 µM) in experiment [1]; 3.14 µg/mL (≈ 7.12 µM) in the experiment with HepG2; 1.91 µg/mL (≈ 4.33 µM) in experiment [2].

Take `COc1cccc2c1C(=O)c1c(O)c3c(c(O)c1C2=O)C[C@@](O)(C(=O)CO)C[C@@H]3O[C@H]1C[C@H](N)[C@H](O)[C@H](C)O1` [DOXORUBICIN]: the IC50 is 8.92 µg/mL (≈ 16.4 µM) in the experiment with BT-474; greater than 10 µg/mL with SW-620; 3.98 µg/mL (≈ 7.32 µM) in experiment [1]; 3.36 µg/mL (≈ 6.18 µM) with HepG2; 5.45 µg/mL (≈ 10 µM) in experiment [2].

In the case of `C=C1C(=O)O[C@H]2C[C@@H]3[C@@]4(CC[C@]5(C)[C@H]([C@@H](C)CC/C=C(\C)C=O)CC[C@@]35C)C[C@]4(CCC(=O)OC)[C@@H]12` [CORONALOLIDE METHYL ESTER], the IC50 with BT-474 was greater than 10 µg/mL; in the experiment on SW-620, 6.19 µg/mL (≈ 12.5 µM); in experiment [1], greater than 10 µg/mL; in the experiment on HepG2, 6.8 µg/mL (≈ 13.7 µM); in experiment [2], 8.64 µg/mL (≈ 17.4 µM).

With `C=C1C(=O)O[C@@H]2C[C@@H]3[C@]4(CC[C@]5(C)[C@@H]([C@H](C)CCC=C(C)C)CC[C@@]35C)C[C@]4(CCC(=O)O)[C@H]12` [SOOTEPIN B], the IC50 with BT-474 amounted to 4.98 µg/mL (≈ 10.6 µM); in the experiment with SW-620, 5.57 µg/mL (≈ 11.9 µM); in experiment [1] it was 5.24 µg/mL (≈ 11.2 µM); in the experiment on HepG2, 5.86 µg/mL (≈ 12.5 µM); in experiment [2], 3.68 µg/mL (≈ 7.85 µM).

For the molecule `C=C(CO)[C@@H]1CC[C@@H]2[C@]3(CC[C@]4(C)[C@@H]([C@H](C)CC/C=C(\C)C=O)CC[C@@]24C)C[C@]13CCC(=O)OC` [SOOTEPIN D], the IC50 was greater than 10 µg/mL with BT-474; greater than 10 µg/mL with SW-620; greater than 10 µg/mL in experiment [1]; greater than 10 µg/mL in the experiment with HepG2; 7.35 µg/mL (≈ 15.2 µM) in experiment [2].

`C=C(CO)[C@@H]1CC[C@@H]2[C@]3(CC[C@]4(C)[C@@H]([C@H](C)CCC=C(C)C)CC[C@@]24C)C[C@]13CCC(=O)OC` [SOOTEPIN C]: the IC50 was greater than 10 µg/mL with BT-474; greater than 10 µg/mL in the experiment on SW-620; greater than 10 µg/mL in experiment [1]; 3.49 µg/mL (≈ 7.41 µM) in the experiment on HepG2; 7.79 µg/mL (≈ 16.5 µM) in experiment [2].

On to `C=C1C(=O)O[C@@H]2C[C@@H]3[C@]4(CC[C@]5(C)[C@@H]([C@H](C)CC/C=C(\C)C=O)CC[C@@]35C)C[C@]4(CCC(=O)O)[C@H]12` [CORONALOLIDE], for which the IC50 turned out to be 6.59 µg/mL (≈ 13.7 µM) with BT-474; 4.98 µg/mL (≈ 10.3 µM) in the experiment on SW-620; 5.42 µg/mL (≈ 11.2 µM) in experiment [1]; 6.41 µg/mL (≈ 13.3 µM) in the experiment with HepG2; 5.85 µg/mL (≈ 12.1 µM) in experiment [2].

As to `C=C1C(=O)O[C@@H]2C[C@@H]3[C@]4(CC[C@]5(C)[C@@H]([C@H](C)CC/C=C(\C)CO)CC[C@@]35C)C[C@]4(CCC(=O)OC)[C@H]12` [SOOTEPIN A], the IC50 in the experiment on BT-474 came out at 5.92 µg/mL (≈ 11.9 µM); with SW-620, 1.8 µg/mL (≈ 3.61 µM); in experiment [1], 3.97 µg/mL (≈ 7.96 µM); in the experiment with HepG2, 2.9 µg/mL (≈ 5.82 µM); in experiment [2] it was 2.1 µg/mL (≈ 4.21 µM).

Regarding `C=C1C(=O)O[C@@H]2C[C@@H]3[C@]4(CC[C@]5(C)[C@@H]([C@H](C)CCC=C(C)C)CC[C@@]35C)C[C@]4(CCC(=O)OC)[C@H]12` [TUBIFEROLIDE METHYL ESTER], the IC50 came to 5.33 µg/mL (≈ 11 µM) with BT-474; 5.78 µg/mL (≈ 12 µM) in the experiment on SW-620; 4.08 µg/mL (≈ 8.45 µM) in experiment [1]; 3.41 µg/mL (≈ 7.06 µM) with HepG2; 4.9 µg/mL (≈ 10.2 µM) in experiment [2].

For the origin of these results see ChEMBL document CHEMBL1153026, “Cytotoxic 3,4-seco-cycloartane triterpenes from Gardenia sootepensis” (J Nat Prod, 2009).
